Reference: patent US20260355137A1, “NOVEL OPHTHALMIC FORMULATION” (FERTIS INDIA PVT LTD, priority 2022, published 2026)
Entries after “also recorded” stand apart in the source; their conditions may differ.

Assays:
Type in all cases: in vivo, New Zealand rabbit
[1] = test system: cataract induced left eye; experiment: Macroscopic examination, cataract induced left eye (Tables 14-15); details: for cataract efficacy, macroscopic (in words): Table 15; for No Abnormality Detected, incidence: left eye (cataract induced), macroscopic
Method: (§1) An illustrative ophthalmic formulation for treatment of eye disease is set forth below: The formulations provided herein below are tested in cataract induced New Zealand rabbits, and the results are discussed herein below.
(§2) Cataract was induced by injecting 0.5% Methyl Cellulose, which is replaced by aqueous humor in the rabbit eye (i.e., 0.2 mL of Aqueous humor was withdrawn and the same 0.2 mL of 0.5% Methyl cellulose was injected as a replacement). Cataract was observed within 3-4 days of 0.5% Methyl cellulose replacement. Cataract induction was performed to left eye and right eye was served as a control.
(§3) Rabbits were observed by ophthalmoscope and slit lamp once in three days for cataract confirmation. Intraocular pressure was measured with a tonometer once in three days for the confirmation of glaucoma.

[2] = test system: cataract induced left eye: lens and cornea; experiment: Microscopic examination (histopathology) of lens and cornea (Table 16); details: for cataract efficacy, histopathology (in words): Table 16
Method: as §1, §2
(§4) All surviving animals were euthanized on Day 29 by overdose of Thiopental Sodium. Before scheduled euthanasia, the animals were fasted overnight (water allowed) and terminal body weights were recorded. Animals were subjected to detailed macroscopic observation during necropsy. Both right (untreated/uninduced) and left (treated/induced) eyes were collected and cornea and lens were separated, preserved in Davidson fluid. Cornea and lens selected for histopathological evaluation were processed, embedded and sections were cut at 3-5 μm thickness, Sections were placed on grease-free slides and stained with Hematoxylin and Eosin. A 5-step grading system of minimum, mild, moderate, marked and severe will be used to rank microscopic findings for comparison among groups. Data was compiled based on incidences and severity of changes.

[3] = test system: intraocular pressure, glaucoma-induced left eye; experiment: Intraocular pressure, tonometer (Table 17); details: for Intraocular pressure, Mean, Left eye: Left (induced) eye; for Intraocular pressure, Mean, Left eye / Intraocular pressure, Mean, Right eye: male, 6 animals/group; for intraocular pressure following treatment / mean intraocular pressure initially measured: induced left eye; for intraocular pressure following treatment: 28-day treatment regimen, 0.5%; for mean intraocular pressure initially measured: six animals, within three days
Method: as §2, §3
(§5) Intra-ocular pressures were measured in animals in each group once in three days using a Tonometer. The readings were documented for each eye separately.

[4] = test system: cataract and intraocular pressure/glaucoma in induced rabbit eye; experiment: Overall efficacy in cataract reduction and reducing intraocular pressure; details: third study; cataract reduction and reducing intraocular pressure, highest to lowest
Method: as §1
The following preclinical studies were conducted in rabbit model to test the efficacy of various active ingredients.
as §2, §3

[5] = test system: intraocular pressure, induced left eye; experiment: Intraocular pressure, tonometer (Table 13); set-up: unit not given beside the values; details: left eye induced/treated
Method: as §2, §3, §5

[6] = test system: cataract induced left eye: lens; experiment: Microscopic observations (histopathology) of lens (Table 12); details: left eye (cataract induced)
Method: as §1, §2, §4

[7] = test system: cataract induced left eye; experiment: Macroscopic examination, cataract induced left eye (cinnamic acid derivatives, Tables 10-11); details: left eye (cataract induced), macroscopic; for No Abnormality Detected, incidence: animals affected/6
Method: as §1, §2, §3

[8] = Day 28, ↓↓ = Significantly low at P ≤ 0.01 compared to respective control

## O=C(O[C@@H]1Cc2c(O)cc(O)cc2O[C@@H]1c1cc(O)c(O)c(O)c1)c1cc(O)c(O)c(O)c1 [Epigallocatechin Gallate, (2R,3R)-2-(3,4,5-trihydroxyphenyl)-3,4-dihydro-1(2H)-benzopyran-3,5,7-triol 3-(3,4,5-trihydroxy benzoate)]
[1]
  cataract efficacy, macroscopic (in words): complete recovery in all 6 animals, with no observable cataracts
  No Abnormality Detected, incidence: 6/6
[2]
  cataract efficacy, histopathology (in words): fully restored, or regenerated in all 6 out of 6 animals, transitioning from severe degeneration to a milder state; also recorded: Only one animal exhibited mild corneal inflammation
[2]; left eye induced
  Cornea, Inflammation: Mild, incidence: 1/6
  Lens, Liquefaction: Mild, incidence: 6/6
[3]; Day 3
  Intraocular pressure, Mean, Left eye: 29.72 mmHg
  Intraocular pressure, Mean, Right eye: 18.11 mmHg
[3]; Day 6
  Intraocular pressure, Mean, Left eye: 33.06 mmHg
  Intraocular pressure, Mean, Right eye: 16.94 mmHg
[3]; Day 9
  Intraocular pressure, Mean, Left eye: 26.56 mmHg
  Intraocular pressure, Mean, Right eye: 16.78 mmHg
[3]; Day 12
  Intraocular pressure, Mean, Left eye: 32.50 mmHg
  Intraocular pressure, Mean, Right eye: 17.00 mmHg
[3]; Day 15
  Intraocular pressure, Mean, Left eye: 26.39 mmHg
  Intraocular pressure, Mean, Right eye: 12.56 mmHg
[3]; Day 18
  Intraocular pressure, Mean, Left eye: 28.94 mmHg
  Intraocular pressure, Mean, Right eye: 16.61 mmHg
[3]; Day 21
  Intraocular pressure, Mean, Left eye: 27.11 mmHg
  Intraocular pressure, Mean, Right eye: 16.06 mmHg
[3]; Day 25
  Intraocular pressure, Mean, Left eye: 25.56 mmHg
  Intraocular pressure, Mean, Right eye: 18.17 mmHg
[3]; [8]
  Intraocular pressure, Mean, Left eye: 20.00↓↓ mmHg
[3]; Day 28
  Intraocular pressure, Mean, Right eye: 16.11 mmHg
[3]
  intraocular pressure following treatment: 20.00 mmHg
  mean intraocular pressure initially measured: 29.72 mmHg
[4]
  overall efficacy / order of efficacy (in words): outstanding efficacy in reducing cataracts and also demonstrated a significant capability to address glaucoma; also recorded: Caffeic Acid G3>Epigallocatechin Gallate G4>Encapsulated Feruloyl Tyramine G5>Ferulic Acid G6>Rosmarinic Acid+Caffeic Acid G2

## O=C(/C=C/c1ccc(O)c(O)c1)OCCc1ccccc1 [Caffeic Acid Phenyl ethyl Ester, caffeic acid phenylethyl ester]
[5]; Day 3
  Intraocular Pressure, mean: 88.07
[5]; Day 6
  Intraocular Pressure, mean: 84.95
[5]; Day 9
  Intraocular Pressure, mean: 84.67
[5]; Day 12
  Intraocular Pressure, mean: 55.95
[5]; Day 15
  Intraocular Pressure, mean: 42.80
[5]; Day 18
  Intraocular Pressure, mean: 42.18
[5]; Day 21
  Intraocular Pressure, mean: 40.93
[5]; Day 24
  Intraocular Pressure, mean: 39.67
[5]; Day 27
  Intraocular Pressure, mean: 36.27
[5]; Day 30
  Intraocular Pressure, mean: 39.42
[5]; Day 33
  Intraocular Pressure, mean: 41.85↓↓
[6]
  Within Normal Histological Limits, incidence: 0/6
[6]; lens
  Epithelial proliferation, incidence: 6/6
  Lenticular Degeneration, incidence: 6/6
  Liquefaction, incidence: 6/6
[6]; lens, number of animals
  Epithelial proliferation: Marked, incidence: 1
  Epithelial proliferation: Mild, incidence: 3
  Epithelial proliferation: Minimal, incidence: 2
  Liquefaction: Mild, incidence: 2
  Liquefaction: Moderate, incidence: 4
[7]
  Opacity, cornea and red discoloured, with diffuse opacity: Moderate, incidence: 4/6
  Opacity, cornea, diffuse: Minimal, incidence: 1/6
  Opacity, cornea, diffuse: Moderate, incidence: 1/6
  No Abnormality Detected, incidence: 0/6

## COc1cc(/C=C/C(=O)O)ccc1O [Ferulic acid]
[1]
  cataract efficacy, macroscopic (in words): complete recovery from cataracts in all 6 animals
  No Abnormality Detected, incidence: 6/6
[2]
  cataract efficacy, histopathology (in words): minimal to moderate lenticular degeneration
[2]; left eye induced
  Lens, Liquefaction: Mild, incidence: 4/6
  Lens, Liquefaction: Minimal, incidence: 1/6
  Lens, Liquefaction: Moderate, incidence: 1/6
[3]; Day 3
  Intraocular pressure, Mean, Left eye: 30.39 mmHg
  Intraocular pressure, Mean, Right eye: 17.28 mmHg
[3]; Day 6
  Intraocular pressure, Mean, Left eye: 28.39 mmHg
  Intraocular pressure, Mean, Right eye: 16.89 mmHg
[3]; Day 9
  Intraocular pressure, Mean, Left eye: 28.28 mmHg
  Intraocular pressure, Mean, Right eye: 16.89 mmHg
[3]; Day 12
  Intraocular pressure, Mean, Left eye: 25.33 mmHg
  Intraocular pressure, Mean, Right eye: 17.56 mmHg
[3]; Day 15
  Intraocular pressure, Mean, Left eye: 26.00 mmHg
  Intraocular pressure, Mean, Right eye: 14.94 mmHg
[3]; Day 18
  Intraocular pressure, Mean, Left eye: 26.56 mmHg
  Intraocular pressure, Mean, Right eye: 14.94 mmHg
[3]; Day 21
  Intraocular pressure, Mean, Left eye: 23.22 mmHg
  Intraocular pressure, Mean, Right eye: 17.06 mmHg
[3]; Day 25
  Intraocular pressure, Mean, Left eye: 21.72 mmHg
  Intraocular pressure, Mean, Right eye: 17.61 mmHg
[3]; [8]
  Intraocular pressure, Mean, Left eye: 23.67↓↓ mmHg
[3]; Day 28
  Intraocular pressure, Mean, Right eye: 17.28 mmHg
[3]
  intraocular pressure following treatment: 23.67 mmHg
  mean intraocular pressure initially measured: 30.39 mmHg
[4]
  overall efficacy / order of efficacy (in words): Caffeic Acid G3>Epigallocatechin Gallate G4>Encapsulated Feruloyl Tyramine G5>Ferulic Acid G6>Rosmarinic Acid+Caffeic Acid G2

## O=C(/C=C/c1ccc(O)c(O)c1)NCCc1ccccc1 [Caffeic Acid Phenylethyl Amide, caffeic acid phenylethyl amide]
[5]; Day 3
  Intraocular Pressure, mean: 86.65
[5]; Day 6
  Intraocular Pressure, mean: 79.88
[5]; Day 9
  Intraocular Pressure, mean: 78.77
[5]; Day 12
  Intraocular Pressure, mean: 72.72
[5]; Day 15
  Intraocular Pressure, mean: 50.78
[5]; Day 18
  Intraocular Pressure, mean: 49.95
[5]; Day 21
  Intraocular Pressure, mean: 45.67
[5]; Day 24
  Intraocular Pressure, mean: 49.77
[5]; Day 27
  Intraocular Pressure, mean: 36.27
[5]; Day 30
  Intraocular Pressure, mean: 25.85
[5]; Day 33
  Intraocular Pressure, mean: 36.68↓↓
[6]
  Within Normal Histological Limits, incidence: 0/6
[6]; lens
  Epithelial proliferation, incidence: 2/6
  Epithelial proliferation: Absent, incidence: 4/6
  Lenticular Degeneration, incidence: 5/6
  Liquefaction, incidence: 5/6
  Liquefaction: Absent, incidence: 1/6
[6]; lens, number of animals
  Epithelial proliferation: Mild, incidence: 2
  Liquefaction: Mild, incidence: 2
  Liquefaction: Minimal, incidence: 3
[7]
  Opacity, cornea and red discoloured, with diffuse opacity: Moderate, incidence: 1/6
  Opacity, cornea, diffuse: Mild, incidence: 2/6
  Opacity, cornea, diffuse: Minimal, incidence: 3/6
  No Abnormality Detected, incidence: 0/6
